The record followed here is US10745355B2, “Anti-cancer compounds” (THE UNIVERSITY OF SYDNEY, priority 2015, dated 2020).

Common to all, as to format: biochemical
The target of one experiment is T1, EPHB1 (Homo sapiens, UniProt P54762).
T1 sequence (P54762 18-984): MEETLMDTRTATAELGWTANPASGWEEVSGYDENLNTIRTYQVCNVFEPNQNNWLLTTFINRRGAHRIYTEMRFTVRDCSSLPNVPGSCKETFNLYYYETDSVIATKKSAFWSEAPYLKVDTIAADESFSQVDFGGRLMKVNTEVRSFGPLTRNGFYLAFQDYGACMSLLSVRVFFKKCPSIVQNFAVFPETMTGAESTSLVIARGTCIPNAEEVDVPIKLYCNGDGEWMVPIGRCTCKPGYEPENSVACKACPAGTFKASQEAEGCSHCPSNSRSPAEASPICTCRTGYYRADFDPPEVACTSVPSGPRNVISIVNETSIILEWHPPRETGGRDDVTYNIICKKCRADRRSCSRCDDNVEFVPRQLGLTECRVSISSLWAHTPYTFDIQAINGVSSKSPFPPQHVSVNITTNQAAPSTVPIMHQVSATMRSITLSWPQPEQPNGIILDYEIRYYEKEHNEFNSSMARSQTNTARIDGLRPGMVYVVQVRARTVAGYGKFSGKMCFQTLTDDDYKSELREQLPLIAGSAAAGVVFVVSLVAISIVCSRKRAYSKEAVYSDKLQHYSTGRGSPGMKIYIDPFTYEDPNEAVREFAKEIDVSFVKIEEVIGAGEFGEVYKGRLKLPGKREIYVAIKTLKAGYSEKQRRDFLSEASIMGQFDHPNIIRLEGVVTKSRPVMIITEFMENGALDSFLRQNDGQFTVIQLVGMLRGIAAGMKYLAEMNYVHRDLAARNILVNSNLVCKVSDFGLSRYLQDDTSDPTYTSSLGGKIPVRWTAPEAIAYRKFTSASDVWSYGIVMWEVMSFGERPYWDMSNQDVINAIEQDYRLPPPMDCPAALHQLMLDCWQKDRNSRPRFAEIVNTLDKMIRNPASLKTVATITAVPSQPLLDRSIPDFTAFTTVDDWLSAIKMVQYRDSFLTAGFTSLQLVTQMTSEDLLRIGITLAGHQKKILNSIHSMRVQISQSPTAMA
The experiment is described as follows: Kinase profiling (ProQinase 33PanQinase Activity Assay), EPHB1. Conditions: read-out: residual activity, EPHB1. The method, then: (§1) The kinase profiling of compound 1-08 at 10 and 50 μM was performed by ProQinase GmbH (Freiburg, Germany). A radiometric protein kinase assay (^33PanQinase® Activity Assay) and the non-radiometric ADP-Glo™ Assay (Promega, Madison, Wis., USA) were used for measuring kinase activity of 387 protein kinases and 13 lipid kinases, respectively. The results are shown in Table 3 (only the top 10 kinases are listed, and the selectivity score describes the portion of kinases inhibited more than 50% in relation to all tested kinases).

The target in another experiment is T2, MERTK (Homo sapiens, UniProt Q12866).
T2 sequence (Q12866 21-999): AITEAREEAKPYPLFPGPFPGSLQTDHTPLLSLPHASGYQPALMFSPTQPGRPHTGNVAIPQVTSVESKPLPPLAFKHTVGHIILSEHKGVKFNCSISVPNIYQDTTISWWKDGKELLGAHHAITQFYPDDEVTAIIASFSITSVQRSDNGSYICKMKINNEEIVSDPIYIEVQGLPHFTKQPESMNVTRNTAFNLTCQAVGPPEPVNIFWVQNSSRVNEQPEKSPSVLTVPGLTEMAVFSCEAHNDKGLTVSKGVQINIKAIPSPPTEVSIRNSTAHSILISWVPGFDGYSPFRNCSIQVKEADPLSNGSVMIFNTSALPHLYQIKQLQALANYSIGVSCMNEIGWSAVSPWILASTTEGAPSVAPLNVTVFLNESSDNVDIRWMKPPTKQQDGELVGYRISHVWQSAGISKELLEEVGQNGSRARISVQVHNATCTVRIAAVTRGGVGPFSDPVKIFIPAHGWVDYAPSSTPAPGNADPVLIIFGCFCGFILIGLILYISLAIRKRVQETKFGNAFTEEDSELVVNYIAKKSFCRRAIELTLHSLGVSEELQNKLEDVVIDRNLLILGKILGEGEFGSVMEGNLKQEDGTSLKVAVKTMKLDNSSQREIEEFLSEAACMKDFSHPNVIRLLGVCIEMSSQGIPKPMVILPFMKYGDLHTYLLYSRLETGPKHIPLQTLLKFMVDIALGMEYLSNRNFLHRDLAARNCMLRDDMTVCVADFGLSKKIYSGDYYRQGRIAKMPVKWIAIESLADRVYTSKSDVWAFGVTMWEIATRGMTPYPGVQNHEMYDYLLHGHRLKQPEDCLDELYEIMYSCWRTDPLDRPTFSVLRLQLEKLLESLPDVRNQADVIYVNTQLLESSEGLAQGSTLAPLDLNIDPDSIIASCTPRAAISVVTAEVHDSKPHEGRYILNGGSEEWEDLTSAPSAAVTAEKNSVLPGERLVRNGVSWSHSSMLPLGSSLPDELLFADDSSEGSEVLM
The experiment is described as follows: Kinase profiling (ProQinase 33PanQinase Activity Assay), MERTK (table: MERK). The method, then:
as §1
At 10 μM, compound 1-08 inhibited MERTK at the 51% level. Several other kinases were inhibited at 50 μM concentration.

Another experiment has as its target SRC (Homo sapiens, UniProt P12931). Put plainly: Kinase profiling (ProQinase 33PanQinase Activity Assay), SRC. Conditions: read-out: residual activity, SRC. As to the method: as §1
A further experiment concerns the target ALK (Homo sapiens, UniProt Q9UM73). Put plainly: Kinase profiling (ProQinase 33PanQinase Activity Assay), ALK. To be noted: read-out: residual activity, ALK. As to the method: as §1
A further experiment concerns the target RON (Homo sapiens, UniProt Q04912). Put plainly: Kinase profiling (ProQinase 33PanQinase Activity Assay), RON. Conditions: read-out: residual activity, RON. The method, then: as §1

Molecules are shown by their SMILES.

RON, sequence (Q04912 25-1400): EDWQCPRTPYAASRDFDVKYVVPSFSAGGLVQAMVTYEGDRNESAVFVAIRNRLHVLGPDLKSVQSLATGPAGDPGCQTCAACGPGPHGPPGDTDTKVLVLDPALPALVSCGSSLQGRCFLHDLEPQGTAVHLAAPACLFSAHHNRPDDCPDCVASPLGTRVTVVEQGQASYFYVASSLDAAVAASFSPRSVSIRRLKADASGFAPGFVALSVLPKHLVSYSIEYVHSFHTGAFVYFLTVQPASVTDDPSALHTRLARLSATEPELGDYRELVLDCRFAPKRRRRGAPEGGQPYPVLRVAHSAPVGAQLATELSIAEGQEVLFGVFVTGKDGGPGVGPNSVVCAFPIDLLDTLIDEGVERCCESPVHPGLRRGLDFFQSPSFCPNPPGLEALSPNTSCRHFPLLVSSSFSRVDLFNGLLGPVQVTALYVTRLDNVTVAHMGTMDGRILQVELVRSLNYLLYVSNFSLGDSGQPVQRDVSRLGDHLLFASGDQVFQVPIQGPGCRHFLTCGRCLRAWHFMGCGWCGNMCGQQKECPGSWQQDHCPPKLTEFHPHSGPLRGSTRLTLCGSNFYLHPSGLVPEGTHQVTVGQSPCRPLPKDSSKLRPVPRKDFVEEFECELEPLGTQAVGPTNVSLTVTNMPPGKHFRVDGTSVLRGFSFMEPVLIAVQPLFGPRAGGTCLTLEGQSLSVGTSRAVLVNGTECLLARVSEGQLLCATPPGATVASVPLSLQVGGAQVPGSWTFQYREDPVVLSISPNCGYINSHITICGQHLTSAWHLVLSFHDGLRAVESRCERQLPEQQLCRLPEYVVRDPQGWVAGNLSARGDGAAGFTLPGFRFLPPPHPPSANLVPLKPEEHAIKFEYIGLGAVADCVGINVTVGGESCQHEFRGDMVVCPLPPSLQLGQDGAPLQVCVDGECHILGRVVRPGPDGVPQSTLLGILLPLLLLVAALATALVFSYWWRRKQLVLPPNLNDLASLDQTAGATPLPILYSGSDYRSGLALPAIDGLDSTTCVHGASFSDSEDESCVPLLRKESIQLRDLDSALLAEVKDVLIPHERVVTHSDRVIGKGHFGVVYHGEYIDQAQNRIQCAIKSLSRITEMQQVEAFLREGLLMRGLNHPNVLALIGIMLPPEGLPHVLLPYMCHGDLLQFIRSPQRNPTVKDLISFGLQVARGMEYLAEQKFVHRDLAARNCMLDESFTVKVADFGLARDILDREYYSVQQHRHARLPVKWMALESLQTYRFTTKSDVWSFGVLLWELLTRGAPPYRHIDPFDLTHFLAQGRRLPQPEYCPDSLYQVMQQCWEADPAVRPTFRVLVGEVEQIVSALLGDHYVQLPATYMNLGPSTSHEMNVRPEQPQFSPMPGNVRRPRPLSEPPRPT
SRC, sequence (P12931 whole entry): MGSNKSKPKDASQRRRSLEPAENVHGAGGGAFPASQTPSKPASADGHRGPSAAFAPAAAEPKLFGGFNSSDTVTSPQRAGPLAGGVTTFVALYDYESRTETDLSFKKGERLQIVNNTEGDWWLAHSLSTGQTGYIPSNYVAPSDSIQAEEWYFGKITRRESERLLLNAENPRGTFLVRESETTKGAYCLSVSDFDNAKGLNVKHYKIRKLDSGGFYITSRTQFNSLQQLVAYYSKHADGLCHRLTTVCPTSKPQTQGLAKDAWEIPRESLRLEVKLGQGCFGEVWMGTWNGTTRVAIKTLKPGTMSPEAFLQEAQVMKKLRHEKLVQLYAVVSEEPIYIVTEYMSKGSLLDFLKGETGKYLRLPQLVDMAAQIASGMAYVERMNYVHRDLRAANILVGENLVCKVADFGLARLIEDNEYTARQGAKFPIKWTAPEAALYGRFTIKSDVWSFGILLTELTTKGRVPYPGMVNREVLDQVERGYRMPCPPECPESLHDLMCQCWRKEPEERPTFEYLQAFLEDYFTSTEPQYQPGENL
ALK, sequence (Q9UM73 19-1620): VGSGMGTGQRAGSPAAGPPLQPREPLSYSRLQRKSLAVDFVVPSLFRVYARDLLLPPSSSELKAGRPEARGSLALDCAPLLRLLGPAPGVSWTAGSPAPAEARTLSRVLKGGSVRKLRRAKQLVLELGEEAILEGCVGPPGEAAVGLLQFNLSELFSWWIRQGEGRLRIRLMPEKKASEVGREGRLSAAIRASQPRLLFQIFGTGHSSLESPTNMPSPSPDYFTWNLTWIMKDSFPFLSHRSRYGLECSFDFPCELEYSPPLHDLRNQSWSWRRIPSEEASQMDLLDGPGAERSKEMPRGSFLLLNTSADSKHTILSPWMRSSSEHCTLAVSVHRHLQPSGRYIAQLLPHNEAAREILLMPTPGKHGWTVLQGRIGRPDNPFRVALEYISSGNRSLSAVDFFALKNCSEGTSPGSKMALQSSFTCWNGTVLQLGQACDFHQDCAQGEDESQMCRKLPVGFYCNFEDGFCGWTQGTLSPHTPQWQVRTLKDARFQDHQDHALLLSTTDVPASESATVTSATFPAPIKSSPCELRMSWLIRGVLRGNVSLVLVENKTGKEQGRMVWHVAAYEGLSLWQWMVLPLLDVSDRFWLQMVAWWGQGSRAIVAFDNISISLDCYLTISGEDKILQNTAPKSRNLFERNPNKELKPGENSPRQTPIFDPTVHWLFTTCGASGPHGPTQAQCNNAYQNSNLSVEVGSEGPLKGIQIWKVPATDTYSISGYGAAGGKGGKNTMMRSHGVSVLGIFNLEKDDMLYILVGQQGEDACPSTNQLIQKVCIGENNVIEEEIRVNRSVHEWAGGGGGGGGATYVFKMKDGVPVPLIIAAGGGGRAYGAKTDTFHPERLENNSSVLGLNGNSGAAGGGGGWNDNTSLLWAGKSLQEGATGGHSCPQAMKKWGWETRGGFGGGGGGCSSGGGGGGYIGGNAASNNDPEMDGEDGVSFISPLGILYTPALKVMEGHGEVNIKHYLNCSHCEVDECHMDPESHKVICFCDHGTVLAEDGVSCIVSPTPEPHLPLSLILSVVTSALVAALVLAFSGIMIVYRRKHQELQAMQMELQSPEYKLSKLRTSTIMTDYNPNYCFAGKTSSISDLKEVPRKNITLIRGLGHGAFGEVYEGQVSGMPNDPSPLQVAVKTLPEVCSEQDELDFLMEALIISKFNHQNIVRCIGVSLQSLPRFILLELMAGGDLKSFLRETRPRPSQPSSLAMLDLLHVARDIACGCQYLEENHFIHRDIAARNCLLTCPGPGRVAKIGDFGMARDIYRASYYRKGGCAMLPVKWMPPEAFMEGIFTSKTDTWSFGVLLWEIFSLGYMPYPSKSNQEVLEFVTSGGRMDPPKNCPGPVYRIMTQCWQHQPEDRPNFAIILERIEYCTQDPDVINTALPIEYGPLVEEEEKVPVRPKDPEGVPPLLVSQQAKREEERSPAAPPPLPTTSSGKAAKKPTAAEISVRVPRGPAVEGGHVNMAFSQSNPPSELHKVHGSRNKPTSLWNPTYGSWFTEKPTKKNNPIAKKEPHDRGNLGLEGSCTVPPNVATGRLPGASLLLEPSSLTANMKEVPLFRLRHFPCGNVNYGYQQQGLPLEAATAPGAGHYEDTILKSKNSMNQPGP

One may read the inhibition as the share of the control response that was lost under treatment. A higher inhibition goes with a strong effect. Consider `O=C(CCCc1ccc(-c2cnc3ccccc3c2)cc1)Nc1ccc(O)cc1` [Compound 1-08, N-(4-hydroxyphenyl)-4-(4-(quinolin-3-yl)phenyl)butanamide], for which the remaining activity at 10 µM at EPHB1 (10 μM compound) is 57%; on MERTK (10 μM compound, read-out: residual activity, MERK), 49%; at SRC (10 μM compound), 57%; on ALK (10 μM compound) it was 76%; at RON (10 μM compound), 84%. The remaining activity at 50 µM at EPHB1 (50 μM compound) was 20%; at MERTK (50 μM compound, read-out: residual activity, MERK) it was 12%; on SRC (50 μM compound) it was 21%; on ALK (50 μM compound), 21%; at RON (50 μM compound), 18%. In addition, 10 µM produced 51% inhibition at MERTK (10 μM compound).
